Patent US10254297B2, “Assay for methoxetamine” (Randox Laboratories Ltd, priority 2015, dated 2019)
Values after ≈ are worked out from the molar mass of the structure shown.

System: antibody raised against Immunogen 2 (Example 9), Tracer 1
Test: Competitive assay (ELISA) for cross-reactivity measurement
Assay type: binding, sheep
Details: for CCR (competitive cross reactivity): Table 1, antibodies raised against Immunogen 2, Tracer 1, relative to methoxetamine = 100%, summarised from FIGS. 5 to 7; for Antibody binding, in words: Table 1 and FIGS. 5 to 7, antibody of the invention; for IC50 used in % CCR calculation: standard concentration giving 50% inhibition of maximal signal
[1] = FIG. 5 (antibody derived from sheep 1)

Structure (SMILES) | CCR (competitive cross reactivity) | Antibody binding, in words | % CCR (compared to methoxetamine) (FIG. 5 (antibody derived from sheep 1), IC50 methoxetamine / IC50 analyte x 100) | IC50 used in % CCR calculation [1]
c1ccc(C2(N3CCCCC3)CCCCC2)cc1 [Phencyclidine] | <5.00% | does not bind | – | –
COc1cccc(C2(O)CCCCC2CN(C)C)c1 (stereo not drawn) [Tramadol] | <5.00% | does not bind | – | –
COc1cccc(C2(N)CCCCC2=O)c1 (stereo not drawn) [N-desethylmethoxetamine, 2-amino-2-(3-methoxyphenyl)cyclohexanone] | >5.00% | substantial binding | 24% | 1.96 ng/mL (≈ 8.94 nM)
CCOC(=O)C1(c2ccccc2)CCC=CC1N(C)C (stereo not drawn) [Tilidine] | <5.00% | – | – | –
CNC1(c2ccccc2Cl)CCCCC1=O (stereo not drawn) [Ketamine] | <5.00% | does not bind | – | –
CCNC1(c2cccc(OC)c2)CCCCC1=O (stereo not drawn) [Methoxetamine, 2-(3-methoxyphenyl)-2-(ethylamino)cyclohexanone] | 100.00% | high affinity | – | 0.47 ng/mL (≈ 1.9 nM)
NC1(c2ccccc2Cl)CCCCC1=O (stereo not drawn) [Norketamine] | <5.00% | – | – | –
